Key:
[1] = target: Histone deacetylase 4 (Homo sapiens, UniProt P56524); assay: Inhibition of human HDAC4 expressed in 293T cells; type: cell-based
[2] = target: T1, Protein deacetylase HDAC6 (Homo sapiens, UniProt Q9UBN7); assay: Inhibition of human HDAC6 expressed in 293T cells; type: cell-based
T1 sequence (Q9UBN7 whole entry): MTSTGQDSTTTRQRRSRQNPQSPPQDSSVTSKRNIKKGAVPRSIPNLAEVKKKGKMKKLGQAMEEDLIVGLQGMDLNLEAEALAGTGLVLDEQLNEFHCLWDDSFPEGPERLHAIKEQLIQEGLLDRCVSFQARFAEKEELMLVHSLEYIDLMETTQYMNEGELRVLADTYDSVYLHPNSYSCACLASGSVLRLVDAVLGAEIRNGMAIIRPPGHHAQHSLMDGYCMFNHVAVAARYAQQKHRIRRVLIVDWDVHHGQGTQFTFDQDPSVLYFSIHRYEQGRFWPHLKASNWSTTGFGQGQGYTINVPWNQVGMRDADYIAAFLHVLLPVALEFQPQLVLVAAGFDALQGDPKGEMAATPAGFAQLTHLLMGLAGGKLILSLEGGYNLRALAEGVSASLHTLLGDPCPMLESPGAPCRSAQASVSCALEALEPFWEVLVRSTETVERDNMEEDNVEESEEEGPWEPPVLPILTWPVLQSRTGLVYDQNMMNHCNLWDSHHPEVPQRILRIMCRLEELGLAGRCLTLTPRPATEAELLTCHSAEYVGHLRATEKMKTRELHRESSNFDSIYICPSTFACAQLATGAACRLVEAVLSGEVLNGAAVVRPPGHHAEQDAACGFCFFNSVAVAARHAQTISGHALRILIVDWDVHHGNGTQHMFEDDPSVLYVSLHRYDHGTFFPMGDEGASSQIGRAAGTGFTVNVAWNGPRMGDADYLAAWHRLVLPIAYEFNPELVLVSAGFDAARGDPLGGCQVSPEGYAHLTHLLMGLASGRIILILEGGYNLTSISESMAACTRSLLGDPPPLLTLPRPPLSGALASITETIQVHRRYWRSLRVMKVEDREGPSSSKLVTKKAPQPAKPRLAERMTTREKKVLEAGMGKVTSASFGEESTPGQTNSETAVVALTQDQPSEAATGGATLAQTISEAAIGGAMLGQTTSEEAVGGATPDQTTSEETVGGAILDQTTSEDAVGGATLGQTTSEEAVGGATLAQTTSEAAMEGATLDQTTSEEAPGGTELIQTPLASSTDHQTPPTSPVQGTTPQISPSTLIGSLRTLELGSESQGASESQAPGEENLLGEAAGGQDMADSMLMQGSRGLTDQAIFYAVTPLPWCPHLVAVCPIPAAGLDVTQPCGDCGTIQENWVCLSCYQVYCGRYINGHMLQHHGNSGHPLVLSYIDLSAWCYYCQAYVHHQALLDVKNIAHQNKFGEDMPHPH

[3] = tested on: HeLa; assay: Induction of p21 expression in human HeLa cells after 24 hrs; type: functional
[4] = species on record: Mus musculus; assay: Antiangiogenic activity in mouse induced pluripotent stem cells; type: functional
[5] = target: Histone deacetylase 1 (Homo sapiens, UniProt Q13547); assay: Inhibition of human HDAC1 expressed in 293T cells; type: cell-based
Sequence of Histone deacetylase 1 (Q13547 whole entry): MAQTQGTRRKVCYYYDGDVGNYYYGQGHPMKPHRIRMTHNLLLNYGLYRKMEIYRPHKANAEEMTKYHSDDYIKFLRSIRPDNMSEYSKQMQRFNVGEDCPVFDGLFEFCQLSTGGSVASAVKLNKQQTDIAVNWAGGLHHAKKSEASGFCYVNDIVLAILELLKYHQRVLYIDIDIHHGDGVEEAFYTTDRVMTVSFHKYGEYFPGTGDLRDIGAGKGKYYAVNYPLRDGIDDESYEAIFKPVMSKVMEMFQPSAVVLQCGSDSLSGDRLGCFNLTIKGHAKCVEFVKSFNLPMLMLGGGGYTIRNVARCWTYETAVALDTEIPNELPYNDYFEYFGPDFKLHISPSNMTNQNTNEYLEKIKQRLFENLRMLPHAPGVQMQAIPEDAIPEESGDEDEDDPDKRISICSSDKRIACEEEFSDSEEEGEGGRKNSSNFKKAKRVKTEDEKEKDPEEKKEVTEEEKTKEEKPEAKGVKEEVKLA

Sequence of Histone deacetylase 4 (P56524 whole entry): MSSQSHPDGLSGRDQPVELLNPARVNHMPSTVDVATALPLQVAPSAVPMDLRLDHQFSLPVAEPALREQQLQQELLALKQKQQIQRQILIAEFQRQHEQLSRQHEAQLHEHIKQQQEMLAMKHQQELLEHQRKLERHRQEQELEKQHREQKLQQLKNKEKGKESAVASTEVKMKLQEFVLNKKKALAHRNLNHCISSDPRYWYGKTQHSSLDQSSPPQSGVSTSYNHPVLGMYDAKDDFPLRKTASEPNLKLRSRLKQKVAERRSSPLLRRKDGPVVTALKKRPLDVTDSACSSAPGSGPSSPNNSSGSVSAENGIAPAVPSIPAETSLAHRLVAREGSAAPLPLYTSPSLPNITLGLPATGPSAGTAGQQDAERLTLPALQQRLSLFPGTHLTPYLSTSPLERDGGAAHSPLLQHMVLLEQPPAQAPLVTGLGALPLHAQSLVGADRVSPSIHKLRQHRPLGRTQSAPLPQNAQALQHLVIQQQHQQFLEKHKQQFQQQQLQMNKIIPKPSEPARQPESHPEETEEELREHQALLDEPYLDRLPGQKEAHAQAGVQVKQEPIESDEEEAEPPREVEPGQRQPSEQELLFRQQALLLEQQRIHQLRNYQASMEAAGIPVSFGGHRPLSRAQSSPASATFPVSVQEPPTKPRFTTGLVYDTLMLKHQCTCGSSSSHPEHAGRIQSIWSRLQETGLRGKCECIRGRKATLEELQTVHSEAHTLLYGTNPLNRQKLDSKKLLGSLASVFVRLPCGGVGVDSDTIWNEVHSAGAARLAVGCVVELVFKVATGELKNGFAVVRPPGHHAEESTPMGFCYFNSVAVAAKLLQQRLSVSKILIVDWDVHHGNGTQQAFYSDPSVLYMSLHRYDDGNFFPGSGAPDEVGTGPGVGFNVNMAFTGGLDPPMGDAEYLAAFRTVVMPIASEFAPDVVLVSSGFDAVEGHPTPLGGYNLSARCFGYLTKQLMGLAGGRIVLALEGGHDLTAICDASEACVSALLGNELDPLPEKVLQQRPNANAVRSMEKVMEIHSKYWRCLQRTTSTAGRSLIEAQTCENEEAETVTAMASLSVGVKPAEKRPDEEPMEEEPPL

Row | Compound | IC50 [1] [µM] | IC50 [2] [µM] | EC1000 [3] [µM] | Activity [4] | IC50 [5] [µM]
1 | CC(C)[C@H]1NC(=O)[C@@H](C)[C@@H](C/C=C\CCC(=O)O)NC(=O)[C@@H](Cc2ccccc2)NC(=O)[C@@H](C)NC1=O [AZUMAMIDE E] | 2.28 | > 50 | 17 | Dose-dependent effect | –
2 | CC(C)[C@H]1NC(=O)[C@@H](C)[C@@H](C/C=C\CCC(=O)O)NC(=O)[C@@H](Cc2ccc(O)cc2)NC(=O)[C@@H](C)NC1=O [AZUMAMIDE C] | 3.16 | > 50 | >25 | – | 1.17
3 | CC(C)[C@H]1NC(=O)[C@@H](C)[C@@H](C/C=C\CCC(N)=O)NC(=O)[C@@H](Cc2ccccc2)NC(=O)[C@@H](C)NC1=O [AZUMAMIDE A] | > 50 | > 50 | >25 | – | > 50
4 | CC(C)[C@H]1NC(=O)[C@@H](C)[C@@H](C/C=C\CCC(N)=O)NC(=O)[C@@H](Cc2ccc(O)cc2)NC(=O)[C@@H](C)NC1=O [AZUMAMIDE B] | 3.66 | > 50 | >25 | – | 1.83
5 | CC(/C=C/C(=O)NO)=C\[C@@H](C)C(=O)c1ccc(N(C)C)cc1 [TRICHOSTATIN] | – | – | 0.0115 | – | –
6 | C[C@@H]1C(=O)N[C@H](C)C(=O)N[C@H](C)C(=O)N[C@H](Cc2ccccc2)C(=O)N[C@@H]1C/C=C\CCC(N)=O [AZUMAMIDE D] | > 50 | > 50 | >25 | – | > 50

Reference: ChEMBL document CHEMBL1145603, “Evaluation of antiangiogenic activity of azumamides by the in vitro vascular organization model using mouse induced pluripotent stem (iPS) cells” (Bioorg Med Chem Lett, 2008)
